# Reference: ChEMBL document CHEMBL3044812, “QSAR analysis of Mur B inhibitors with antibacterial properties discussing role of physico-chemical parameters” (Med Chem Res, 2011)
# Test: Inhibition of Escherichia coli murB-mediated eduction of enolpyruvyl uridine diphosphate N-acetylglucosamine to uridine diphosphate N-acetyl muramic acid
row,pIC50,Structure (SMILES)
1,4.796,COc1ccc(C(=O)c2c(O)n(-c3ccc(Cl)cc3)n(-c3ccc(Cl)cc3)c2=O)cc1
2,5.229,O=C(c1cccc(Cl)c1)c1c(O)n(-c2ccc(Cl)cc2)n(-c2ccc(Cl)cc2)c1=O
3,4.66,O=C(c1ccc(O)cc1)c1c(O)n(-c2ccc(Cl)cc2)n(-c2ccc(Cl)cc2)c1=O
4,4.398,COc1ccc(CC(=O)c2c(O)n(-c3ccc(Cl)cc3)n(-c3ccc(Cl)cc3)c2=O)cc1
5,5.26,O=C(c1cccc(C(F)(F)F)c1)c1c(O)n(-c2ccc(Cl)cc2)n(-c2ccc(Cl)cc2)c1=O
6,4.824,O=C(c1ccc(C(F)(F)F)cc1)c1c(O)n(-c2ccc(Cl)cc2)n(-c2ccc(Cl)cc2)c1=O
7,5.268,O=C(c1ccc(OC(F)(F)F)cc1)c1c(O)n(-c2ccc(Cl)cc2)n(-c2ccc(Cl)cc2)c1=O
8,4.882,N#Cc1ccc(C(=O)c2c(O)n(-c3ccc(Cl)cc3)n(-c3ccc(Cl)cc3)c2=O)cc1
9,5.009,O=C(c1ccccc1)c1c(O)n(-c2ccc(Cl)cc2)n(-c2ccc(Cl)cc2)c1=O
10,5,COc1ccc(NC(=O)c2c(O)n(-c3ccc(Cl)cc3)n(-c3ccc(Cl)cc3)c2=O)cc1
11,5.347,CCCCOc1ccc(C(=O)c2c(O)n(-c3ccc(Cl)cc3)n(-c3ccc(Cl)cc3)c2=O)cc1
12,4.863,O=C(c1ccc(Cl)cc1)c1c(O)n(-c2ccc(Cl)cc2)n(-c2ccc(Cl)cc2)c1=O

# Further lines, the molecule ahead of its results:
row,Structure (SMILES),pIC50
1,O=C(c1ccccc1Cl)c1c(O)n(-c2ccc(Cl)cc2)n(-c2ccc(Cl)cc2)c1=O,4.914
2,CC(C(=O)c1c(O)n(-c2ccc(Cl)cc2)n(-c2ccc(Cl)cc2)c1=O)c1ccc(Br)cc1 (stereo not drawn),5.252
3,O=C(Nc1ccccc1)c1c(O)n(-c2ccccc2)n(-c2ccccc2)c1=O,4.268
4,Cc1ccc(NC(=O)c2c(O)n(-c3ccc(Cl)c(Cl)c3)n(-c3ccc(Cl)c(Cl)c3)c2=O)cc1,5.319
5,O=C(c1c(O)n(-c2ccc(Cl)cc2)n(-c2ccc(Cl)cc2)c1=O)C1CCCCC1,4.62
6,O=C(Nc1ccc(Cl)c(Cl)c1)c1c(O)n(-c2ccc(Cl)c(Cl)c2)n(-c2ccc(Cl)c(Cl)c2)c1=O,5.319
7,O=C(Nc1ccc(Cl)cc1)c1c(O)n(-c2ccccc2)n(-c2ccccc2)c1=O,4.268
8,O=C(Nc1ccc(Br)cc1)c1c(O)n(-c2ccccc2)n(-c2ccccc2)c1=O,4.377
9,CCOC(=O)c1cccc(C(=O)c2c(O)n(-c3ccc(Cl)cc3)n(-c3ccc(Cl)cc3)c2=O)c1,4.754
10,O=C(c1cccs1)c1c(O)n(-c2ccc(Cl)cc2)n(-c2ccc(Cl)cc2)c1=O,5.237
11,O=C(Nc1ccc(Cl)cc1)c1c(O)n(-c2ccc(Cl)cc2)n(-c2ccc(Cl)cc2)c1=O,4.959
12,O=C(Nc1ccc(Cl)c(Cl)c1)c1c(O)n(-c2ccc(Cl)cc2)n(-c2ccc(Cl)cc2)c1=O,4.886
13,O=C(c1ccc(-c2ccccc2)cc1)c1c(O)n(-c2ccc(Cl)cc2)n(-c2ccc(Cl)cc2)c1=O,5.215
14,O=C(Nc1ccc(Cl)cc1)c1c(O)n(-c2cccc(Cl)c2)n(-c2cccc(Cl)c2)c1=O,5.066
15,O=C(CCc1ccccc1)c1c(O)n(-c2ccc(Cl)cc2)n(-c2ccc(Cl)cc2)c1=O,5.018
16,O=C(Nc1ccc(C(F)(F)F)cc1)c1c(O)n(-c2cccc(Cl)c2)n(-c2cccc(Cl)c2)c1=O,5.061
